Experimental data from ChEMBL document CHEMBL1201862, “PubChem BioAssay data set” (2004).
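Five concentrations, 48 hours, 96-well plates. Here, GI50 denotes the concentration required for 50% inhibition of growth.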 Calls of active or inactive are those of the source. Cut-off read from the data, not from the text of the source: active = GI50 up to about 1.1 µM and inactive = higher.

Experiments:
Assay in all cases: NCI-60 cell line screen, 48 h
COLO 205 = system: COLO 205
786-0 = system: 786-0
SF-295 = system: SF-295
SK-MEL-2 = system: SK-MEL-2
A549 = system: A549
EKVX = system: EKVX
SK-MEL-5 = system: SK-MEL-5
UACC-257 = system: UACC-257
HCT-15 = system: HCT-15
HT-29 = system: HT-29
LOX IMVI = system: LOX IMVI
Malme-3M = system: Malme-3M
UACC-62 = system: UACC-62
OVCAR-5 = system: OVCAR-5
TK-10 = system: TK-10
OVCAR-4 = system: OVCAR-4
CCRF-CEM = system: CCRF-CEM
NCI-H226 = system: NCI-H226

SMILES	GI50 (COLO 205)	GI50 (786-0)	GI50 (SF-295)	GI50 (SK-MEL-2)	GI50 (A549)	GI50 (EKVX)	GI50 (SK-MEL-5)	GI50 (UACC-257)	GI50 (HCT-15) [µM]	GI50 (HT-29)	GI50 (LOX IMVI)	GI50 (Malme-3M)	GI50 (UACC-62)	GI50 (OVCAR-5)	GI50 (TK-10)	GI50 (OVCAR-4)	GI50 (CCRF-CEM)	GI50 (NCI-H226)
CCNC(=O)O/N=C1\CCC2[C@@H]3CC=C4C[C@@H](OC(=O)NCC)CC[C@]4(C)C3CC[C@]12C (some centres not stated)	0.387 µM (active)	2.91 µM (inactive)	0.971 µM (active)	2.13 µM (inactive)	2.16 µM (inactive)	0.735 µM (active)	0.807 µM (active)	0.422 µM (active)	2.15	2.86 µM (inactive)	0.537 µM (active)	0.267 µM (active)	0.951 µM (active)	2.58 µM (inactive)	1.77 µM (inactive)	1.55 µM (inactive)		
C#CC1(O)CCC2C3CCc4cc(Oc5nc(F)nc(-c6c7ccccc7c7sc8ccccc8n67)n5)ccc4C3CC[C@@]21C (some centres not stated)	> 100 µM (inactive)	> 100 µM (inactive)	> 100 µM (inactive)	> 100 µM (inactive)	> 100 µM (inactive)		> 100 µM (inactive)	> 100 µM (inactive)	> 100	> 100 µM (inactive)		> 100 µM (inactive)	> 100 µM (inactive)	> 100 µM (inactive)	> 100 µM (inactive)	> 100 µM (inactive)	35.2 µM (inactive)	> 100 µM (inactive)
N/N=C1\C(=O)N(C2CCCCCC2)C(=O)C1C(=O)NC1CCCCCC1 (configuration not stated)	35.1 µM (inactive)	29.6 µM (inactive)	45.2 µM (inactive)	19.1 µM (inactive)	49.1 µM (inactive)	32.7 µM (inactive)	17.1 µM (inactive)	55.3 µM (inactive)	30	32.1 µM (inactive)		24.7 µM (inactive)	18.8 µM (inactive)	39.3 µM (inactive)	> 10 µM (inactive)	28.3 µM (inactive)	25.4 µM (inactive)	
CCCOc1ccc(/C=C\c2cc(OC)c(OC)c(OC)c2)cc1	39.2 µM (inactive)	> 100 µM (inactive)	39.9 µM (inactive)		40.7 µM (inactive)	87.5 µM (inactive)	13.6 µM (inactive)	54 µM (inactive)	43.6	26.5 µM (inactive)	27.4 µM (inactive)	62.2 µM (inactive)	41.4 µM (inactive)	10.1 µM (inactive)	31.8 µM (inactive)	30.5 µM (inactive)	> 100 µM (inactive)	> 100 µM (inactive)
CCCN(CCC)c1c([N+](=O)[O-])cc(C(=O)N(C)C)cc1[N+](=O)[O-]	76.4 µM (inactive)	> 100 µM (inactive)	> 100 µM (inactive)	> 100 µM (inactive)	51.5 µM (inactive)	37.8 µM (inactive)	5.07 µM (inactive)	35.4 µM (inactive)	40.4	> 100 µM (inactive)		52.6 µM (inactive)		> 100 µM (inactive)	> 100 µM (inactive)	15.5 µM (inactive)	28.4 µM (inactive)	
CCc1cccc(C)c1NC(=O)C(=O)Cc1nc2ccccc2s1	> 100 µM (inactive)	> 100 µM (inactive)	> 100 µM (inactive)	> 100 µM (inactive)	> 100 µM (inactive)	> 100 µM (inactive)	> 100 µM (inactive)	> 100 µM (inactive)		> 100 µM (inactive)		> 100 µM (inactive)	> 100 µM (inactive)		> 100 µM (inactive)	> 100 µM (inactive)	> 100 µM (inactive)	> 100 µM (inactive)
COc1ccc2oc3c(OC)c(OC)c(OC)cc3c(=O)c2c1	> 100 µM (inactive)	> 100 µM (inactive)		> 100 µM (inactive)	> 100 µM (inactive)	76 µM (inactive)	> 100 µM (inactive)	> 100 µM (inactive)	> 100	> 100 µM (inactive)	> 100 µM (inactive)	> 100 µM (inactive)	> 100 µM (inactive)	> 100 µM (inactive)	> 100 µM (inactive)	> 100 µM (inactive)	> 100 µM (inactive)	
CN1C(=O)C(C)(C)NS1(=O)=O	> 100 µM (inactive)	> 100 µM (inactive)	> 100 µM (inactive)	> 100 µM (inactive)	> 100 µM (inactive)	> 100 µM (inactive)	> 100 µM (inactive)	> 100 µM (inactive)	> 100	> 100 µM (inactive)	> 100 µM (inactive)	> 100 µM (inactive)	> 100 µM (inactive)	> 100 µM (inactive)	> 100 µM (inactive)	> 100 µM (inactive)	> 100 µM (inactive)	
COC(=O)[C@@H]1C[C@H](c2ccc(OC)c(OC)c2)OC1=O.COC(=O)[C@H]1C[C@H](c2ccc(OC)c(OC)c2)OC1=O	> 100 µM (inactive)	> 100 µM (inactive)	> 100 µM (inactive)		> 100 µM (inactive)	> 100 µM (inactive)	> 100 µM (inactive)	> 100 µM (inactive)	> 100	> 100 µM (inactive)	> 100 µM (inactive)	> 100 µM (inactive)	> 100 µM (inactive)	> 100 µM (inactive)	> 100 µM (inactive)	> 100 µM (inactive)	> 100 µM (inactive)	> 100 µM (inactive)
COC(=O)[C@@H]1c2[nH]c3ccccc3c2C[C@@H]2c3ccccc3NC(=O)[C@@H]21	> 82.2 µM (inactive)	42.8 µM (inactive)	15.7 µM (inactive)	> 62.8 µM (inactive)	38.8 µM (inactive)	53.5 µM (inactive)	> 54 µM (inactive)	> 85.1 µM (inactive)	> 100	> 100 µM (inactive)	31 µM (inactive)	> 46.5 µM (inactive)	> 75.7 µM (inactive)	> 100 µM (inactive)	> 80.4 µM (inactive)		> 77.6 µM (inactive)	18.3 µM (inactive)
C/N=N/N(C)C(=O)NC	> 100 µM (inactive)	> 100 µM (inactive)	> 100 µM (inactive)	> 100 µM (inactive)	> 100 µM (inactive)		> 100 µM (inactive)		> 100	> 100 µM (inactive)	> 100 µM (inactive)	> 100 µM (inactive)	> 100 µM (inactive)	> 100 µM (inactive)	> 100 µM (inactive)	> 100 µM (inactive)	> 100 µM (inactive)	
NC(=O)COc1c(Br)cc(Br)cc1Br	> 100 µM (inactive)	> 100 µM (inactive)	> 100 µM (inactive)	> 100 µM (inactive)	> 100 µM (inactive)	> 100 µM (inactive)	> 100 µM (inactive)	> 100 µM (inactive)	> 100	> 100 µM (inactive)		> 100 µM (inactive)	> 100 µM (inactive)	> 100 µM (inactive)		27.7 µM (inactive)	> 100 µM (inactive)	> 100 µM (inactive)
c1cncc(C2N3CCCCC3[C@@H]3c4[nH]c5ccccc5c4CCN23)c1 (some centres not stated)		> 100 µM (inactive)	> 100 µM (inactive)	> 100 µM (inactive)	> 100 µM (inactive)	> 100 µM (inactive)	> 100 µM (inactive)	> 100 µM (inactive)	> 100	> 100 µM (inactive)			47.6 µM (inactive)	> 100 µM (inactive)	> 100 µM (inactive)	> 100 µM (inactive)	> 100 µM (inactive)	
